Results reported in PubChem BioAssay AID1259407 (Chemical Carcinogenesis Research Information System (CCRIS), 2018).
The source made the active and inactive calls. No rule for the calls is given here.

Test system: CCRIS mutagenicity, Ames/micronucleus/aberration tests
Assay: CCRIS mutagenicity studies
Conditions: Test System: AMES SALMONELLA TYPHIMURIUM

## CC(O)CCl (configuration not stated)
Strain/Indicator: TA97, Metabolic Activation: HAMSTER, LIVER, S-9, AROCLOR 1254 (10%), Method: PREINCUBATION
  mutagenic call: inactive; negative
Strain/Indicator: TA97, Metabolic Activation: NONE, Method: PREINCUBATION
  mutagenic call: inactive; negative
Strain/Indicator: TA97, Metabolic Activation: RAT, LIVER, S-9, AROCLOR 1254 (10%), Method: PREINCUBATION
  mutagenic call: inactive; negative
Strain/Indicator: TA98, Metabolic Activation: HAMSTER LIVER S-9, AROCLOR 1254 (10%), Method: PREINCUBATION
  mutagenic call: inactive; negative
Strain/Indicator: TA98, Metabolic Activation: HAMSTER, LIVER, S-9, AROCLOR 1254 (10%), Method: PREINCUBATION
  mutagenic call: inactive; negative
Strain/Indicator: TA98, Metabolic Activation: NONE, Method: FLUCTUATION (MICROTITER)
  mutagenic call: inactive; negative
Strain/Indicator: TA98, Metabolic Activation: NONE, Method: PREINCUBATION
  mutagenic call: inactive; negative
Strain/Indicator: TA98, Metabolic Activation: RAT LIVER S-9, AROCLOR 1254 (10%), Method: PREINCUBATION
  mutagenic call: inactive; negative
Strain/Indicator: TA98, Metabolic Activation: RAT LIVER S-9, AROCLOR 1254, Method: FLUCTUATION (MICROTITER)
  mutagenic call: inactive; negative
Strain/Indicator: TA98, Metabolic Activation: RAT, LIVER, S-9, AROCLOR 1254 (10%), Method: PREINCUBATION
  mutagenic call: inactive; negative
Strain/Indicator: TA100, Metabolic Activation: HAMSTER, LIVER, S-9, AROCLOR 1254 (10%), Method: PREINCUBATION
  mutagenic call: inactive; negative
Strain/Indicator: TA100, Metabolic Activation: NONE, Method: PREINCUBATION
  mutagenic call: inactive; negative
Strain/Indicator: TA100, Metabolic Activation: RAT, LIVER, S-9, AROCLOR 1254 (10%), Method: PREINCUBATION
  mutagenic call: inactive; negative
Strain/Indicator: TA1535, Metabolic Activation: HAMSTER LIVER S-9, AROCLOR 1254 (10%), Method: PREINCUBATION
  mutagenic call: active; positive
Strain/Indicator: TA1535, Metabolic Activation: HAMSTER, LIVER, S-9, AROCLOR 1254 (10%), Method: PREINCUBATION
  mutagenic call: active; positive
Strain/Indicator: TA1535, Metabolic Activation: NONE, Method: PREINCUBATION
  mutagenic call: active; positive
Strain/Indicator: TA1535, Metabolic Activation: RAT LIVER S-9, AROCLOR 1254 (10%), Method: PREINCUBATION
  mutagenic call: active; positive
Strain/Indicator: TA1535, Metabolic Activation: RAT, LIVER, S-9, AROCLOR 1254 (10%), Method: PREINCUBATION
  mutagenic call: active; positive
Strain/Indicator: TA1537, Metabolic Activation: HAMSTER LIVER S-9, AROCLOR 1254 (10%), Method: PREINCUBATION
  mutagenic call: inactive; negative
Strain/Indicator: TA1537, Metabolic Activation: HAMSTER, LIVER, S-9, AROCLOR 1254 (10%), Method: PREINCUBATION
  mutagenic call: inactive; negative
Strain/Indicator: TA1537, Metabolic Activation: NONE, Method: FLUCTUATION (MICROTITER)
  mutagenic call: inactive; negative
Strain/Indicator: TA1537, Metabolic Activation: NONE, Method: PREINCUBATION
  mutagenic call: inactive; negative
Strain/Indicator: TA1537, Metabolic Activation: RAT LIVER S-9, AROCLOR 1254 (10%), Method: PREINCUBATION
  mutagenic call: inactive; negative
Strain/Indicator: TA1537, Metabolic Activation: RAT LIVER S-9, AROCLOR 1254, Method: FLUCTUATION (MICROTITER)
  mutagenic call: inactive; negative
Strain/Indicator: TA1537, Metabolic Activation: RAT, LIVER, S-9, AROCLOR 1254 (10%), Method: PREINCUBATION
  mutagenic call: inactive; negative
Strain/Indicator: TA7001, Metabolic Activation: NONE, Method: FLUCTUATION (MICROTITER)
  mutagenic call: inactive; negative
Strain/Indicator: TA7001, Metabolic Activation: RAT LIVER S-9, AROCLOR 1254, Method: FLUCTUATION (MICROTITER)
  mutagenic call: inactive; negative
Strain/Indicator: TA7002, Metabolic Activation: NONE, Method: FLUCTUATION (MICROTITER)
  mutagenic call: inactive; negative
Strain/Indicator: TA7002, Metabolic Activation: RAT LIVER S-9, AROCLOR 1254, Method: FLUCTUATION (MICROTITER)
  mutagenic call: inactive; negative
Strain/Indicator: TA7003, Metabolic Activation: NONE, Method: FLUCTUATION (MICROTITER)
  mutagenic call: inactive; negative
Strain/Indicator: TA7003, Metabolic Activation: RAT LIVER S-9, AROCLOR 1254, Method: FLUCTUATION (MICROTITER)
  mutagenic call: inactive; negative
Strain/Indicator: TA7004, Metabolic Activation: NONE, Method: FLUCTUATION (MICROTITER)
  mutagenic call: inactive; negative
Strain/Indicator: TA7004, Metabolic Activation: RAT LIVER S-9, AROCLOR 1254, Method: FLUCTUATION (MICROTITER)
  mutagenic call: inactive; negative
Strain/Indicator: TA7005, Metabolic Activation: NONE, Method: FLUCTUATION (MICROTITER)
  mutagenic call: inactive; negative
Strain/Indicator: TA7005, Metabolic Activation: RAT LIVER S-9, AROCLOR 1254, Method: FLUCTUATION (MICROTITER)
  mutagenic call: inactive; negative
Strain/Indicator: TA7006, Metabolic Activation: NONE, Method: FLUCTUATION (MICROTITER)
  mutagenic call: inactive; negative
Strain/Indicator: TA7006, Metabolic Activation: RAT LIVER S-9, AROCLOR 1254, Method: FLUCTUATION (MICROTITER)
  mutagenic call: inactive; negative
